Laboratory results published in PubChem BioAssay AID1963833 (Molecular Pharmacology Branch, DTP, NCI, 2024).

Test system: 883617-216-R-J1-PDC complex spheroid viability
Test: Anticancer human tumor 883617-216-R-J1-PDC patient-derived bladder carcinoma cell line growth inhibition [POLQ]
Details: for IC50: curve of first compound; for viability, T/C: stronger effect = lower value; active means viability on the fitted dose curve at most 10% of control; inactive means the rest
Method in brief: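 Patient-derived tumour cells were co-cultured with HUVEC and mesenchymal stem cells as multicellular spheroids at 37 °C. They were treated with POLQ inhibitors (novobiocin, ART-558, RP6685) alone or combined with other agents. Top concentrations were at or near clinical Cmax (otherwise 10 microM; SN-38 at 1 microM), decreasing in half-log steps.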

[1] = second compound 0.0316 µM, first compound 0.0316 µM
[2] = second compound 0.0316 µM, first compound 0.1 µM
[3] = second compound 0.0316 µM, first compound 0.316 µM
[4] = second compound 0.0316 µM, first compound 1 µM
[5] = second compound 0.0316 µM, first compound 3.16 µM
[6] = second compound 0.0316 µM, first compound 10 µM
[7] = second compound 0.1 µM, first compound 0.0316 µM
[8] = second compound 0.1 µM, first compound 0.1 µM
[9] = second compound 0.1 µM, first compound 0.316 µM
[10] = second compound 0.1 µM, first compound 1 µM
[11] = second compound 0.1 µM, first compound 3.16 µM
[12] = second compound 0.1 µM, first compound 10 µM
[13] = second compound 0.316 µM, first compound 0.0316 µM
[14] = second compound 0.316 µM, first compound 0.1 µM
[15] = second compound 0.316 µM, first compound 0.316 µM
[16] = second compound 0.316 µM, first compound 1 µM
[17] = second compound 0.316 µM, first compound 3.16 µM
[18] = second compound 0.316 µM, first compound 10 µM
[19] = second compound 1 µM, first compound 0.0316 µM
[20] = second compound 1 µM, first compound 0.1 µM
[21] = second compound 1 µM, first compound 0.316 µM
[22] = second compound 1 µM, first compound 1 µM
[23] = second compound 1 µM, first compound 3.16 µM
[24] = second compound 1 µM, first compound 10 µM
[25] = second compound 3.16 µM, first compound 0.0316 µM
[26] = second compound 3.16 µM, first compound 0.1 µM
[27] = second compound 3.16 µM, first compound 0.316 µM
[28] = second compound 3.16 µM, first compound 1 µM
[29] = second compound 3.16 µM, first compound 3.16 µM
[30] = second compound 3.16 µM, first compound 10 µM
[31] = second compound 10 µM, first compound 0.0316 µM
[32] = second compound 10 µM, first compound 0.1 µM
[33] = second compound 10 µM, first compound 0.316 µM
[34] = second compound 10 µM, first compound 1 µM
[35] = second compound 10 µM, first compound 3.16 µM
[36] = second compound 10 µM, first compound 10 µM
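Further: spheroids exposed to compounds for seven days before readout.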
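Wherever viability, T/C is given: 100% = DMSO vehicle control viability.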

Nc1ccn(C2OC(CO)C(O)C2(F)F)c(=O)n1 (centres undefined) + Nc1ccc(C#CCN(C(=O)Cc2ncc(C(F)(F)F)cc2C(F)(F)F)c2ccc(F)cc2)nn1
inactive: viability, T/C [1] 33.7% | viability, T/C [2] 33.4% | viability, T/C [3] 39.8% | viability, T/C [4] 33.9% | viability, T/C [5] 56% | viability, T/C [6] 37.3% | viability, T/C [7] 34.5% | viability, T/C [8] 35.1% | viability, T/C [9] 38.2% | viability, T/C [10] 32.4% | viability, T/C [11] 37.5% | viability, T/C [12] 47.1% | viability, T/C [13] 32.5% | viability, T/C [14] 38.7% | viability, T/C [15] 39.3% | viability, T/C [16] 35.9% | viability, T/C [17] 35.1% | viability, T/C [18] 34.3% | viability, T/C [19] 43.1% | viability, T/C [20] 39.9% | viability, T/C [21] 45.2% | viability, T/C [22] 39.8% | viability, T/C [23] 43.3% | viability, T/C [24] 37.6% | viability, T/C [25] 44.7% | viability, T/C [26] 34.4% | viability, T/C [27] 35.4% | viability, T/C [28] 60.7% | viability, T/C [29] 46.2% | viability, T/C [30] 35.6% | viability, T/C [31] 62.4% | viability, T/C [32] 28.1% | viability, T/C [33] 34.5% | viability, T/C [34] 47.7% | viability, T/C [35] 50.4% | viability, T/C [36] 37.6%
< 0.0316 µM: IC50 (second compound 0.0316 µM) | IC50 (second compound 0.1 µM) | IC50 (second compound 0.316 µM) | IC50 (second compound 1 µM) | IC50 (second compound 3.16 µM) | IC50 (second compound 10 µM)

O=c1[nH]cc(F)c(=O)[nH]1 + Nc1ccc(C#CCN(C(=O)Cc2ncc(C(F)(F)F)cc2C(F)(F)F)c2ccc(F)cc2)nn1
inactive: viability, T/C [1] 112% | viability, T/C [2] 105% | viability, T/C [3] 93.2% | viability, T/C [4] 87.1% | viability, T/C [5] 94.2% | viability, T/C [6] 70.3% | viability, T/C [7] 102% | viability, T/C [8] 108% | viability, T/C [9] 101% | viability, T/C [10] 105% | viability, T/C [11] 93.3% | viability, T/C [12] 81.2% | viability, T/C [13] 103% | viability, T/C [14] 106% | viability, T/C [15] 107% | viability, T/C [16] 92.7% | viability, T/C [17] 94.7% | viability, T/C [18] 82.4% | viability, T/C [19] 93.5% | viability, T/C [20] 115% | viability, T/C [21] 99.2% | viability, T/C [22] 110% | viability, T/C [23] 105% | viability, T/C [24] 80.6% | viability, T/C [25] 100% | viability, T/C [26] 107% | viability, T/C [27] 101% | viability, T/C [28] 110% | viability, T/C [29] 103% | viability, T/C [30] 82.2% | viability, T/C [31] 128% | viability, T/C [32] 112% | viability, T/C [33] 120% | viability, T/C [34] 108% | viability, T/C [35] 104% | viability, T/C [36] 94.1%
> 10 µM: IC50 (second compound 0.0316 µM) | IC50 (second compound 0.1 µM) | IC50 (second compound 0.316 µM) | IC50 (second compound 1 µM) | IC50 (second compound 3.16 µM) | IC50 (second compound 10 µM)
